The values below are quoted from earlier work in patent EP0396201A1 (priority 1989, dated 1990).

The series has as its system carbonic anhydrase. The conditions noted are these: carbonic anhydrase inhibitor, relative activity.

In the case of `CC(=O)Nc1nnc(S(N)(=O)=O)s1` [Acetazolamide], the “times as active as p-aminobenzenesulfonamide” value was approximately 330.
